Data taken from patent US20240335431A1, “1-H-PYRROLO[2,3-c]PYRIDINE COMPOUNDS” (Acerta Pharma B.V., priority 2023, published 2024).
Read-outs that look alike come from different tables or passages of the source.

Tests used:
[1] = Human liver microsomes (HLMs) intrinsic clearance assay; format: in vitro ADME; settings: human, microsomes; for HLM CLint: 1 µM, pH 7.4
Method: Human liver microsomes (HLMs) were obtained from Corning (UltraPool 150 donors) at a concentration of 20 mg/mL protein. HLMs were stored at −80° C. until use and prior to use, thawed in a 37° C. water bath and then stored on wet ice. DMSO and NADPH were sourced from Solarbio S&T Co Ltd.
2 mL of 10 mM DMSO stock solutions of test compound were added to 198 mL acetonitrile to produce […] concentration. 1325 mL of 20 mg/mL HLM were added to 22260 mL of phosphate buffer to produce the HLM mixture. An 8.334 mg/mL solution of NADPH was prepared in 100 mmol/L pH 7.4 phosphate buffer.
222.5 mL of the HLM mixture and 25 mL of the 10 mM NADPH were added into the incubation plates (1 mL 96 well deep well plate from Thermo). The mixture was vortexed for 10 seconds at 1000 rpm. The incubation plate was pre-warmed in a water bath at 37° C. for 8 minutes. 2.5 mL of the […] stocks of test compound was added to initiate the reaction. The mix was vortexed for 12 seconds at 1000 rpm and incubated at 37° C. The incubation mixture (250 mL) contained 1 mg/mL HLM, 1 mmol/L NADPH and […].
The reaction was quenched by transferring 20 mL of the incubation mixture at 0.5, 5, 10, 15, 20 and 30 minutes into the quenching plate containing 100 mL of cold stop solution (acetonitrile containing internal standards). The plate was vortexed at 800 rpm for 2 minutes.
The quenching plates were centrifuged for 20 minutes at 4000 rpm and 4° C. 40 mL of the supernatant was transferred into a 96-well analysis plate containing 160 mL of water. The analysis plate was shaken at 1000 rpm for 2 minutes and the samples analysed by LC-MS/MS.
Peak areas were determined from extracted ion chromatograms. Percent parent remaining was calculated from peak area of test compound. The slope value, k, was determined by linear regression of the natural logarithm of percent parent remaining versus incubation time. The in vitro half-life (t1/2) was determined from the slope value by the equation: […]
Conversion of the in vitro half-life (min) into in vitro CLint (mL/min/mg proteins) was completed using the equation: […]

[2] = test system: MOLM-13 cells; assay: Proliferation assay, MOLM-13 (CellTiter-Glo, 7 days); format: cell-based, human
Method: (§1) The anti-proliferative effect of compounds was tested in human leukaemia cell lines. The cell lines […] and MV4; 11 each harbor an MLL translocation expressing the MLL fusion proteins MLL-AF9 and MLL-AF4, respectively. Each also express the wildtype protein from the second allele. OCI-AML3 cells carrying the NPM1c gene mutation were also tested.
(§2) MOLM-13 and HEL cells were cultured in RPMI 1640 (Gibco) supplemented with 10% FBS (Gibco) and 1% Pen/Strep (Gibco). MV4; 11 cells were cultured in IMDM (Gibco) supplemented with 10% FBS (Gibco) and 1% Pen/Strep (Gibco). OCI-AML3 cells were cultured in MEMa (Gibco) supplemented with 20% FBS (Gibco) and 1% Pen/Strep (Gibco).
(§3) To assess proliferative effects, 125 MOLM-13 cells, 300 MV4; 11 cells, 75 OCI-AML3 cells, and 200 HEL cells were seeded in 40 μL media per well in 384-well ViewPlates (Perkin Elmer, 6007480). Cell seeding numbers were chosen based on growth curves to ensure linear growth throughout the experiments. Test compounds were added at 3.16-fold serial dilutions in DMSO from […] and DMSO content was normalized to 0.1%. Cells were incubated for 7 days at 37° C. and 5% CO2. A day 0 plate was seeded for each cell line and used as a standard control.
(§4) To measure cell viability, CellTiter-Glo 2.0 (Promega, G9242) luminescent growth indicator was used. 10 μL CellTiter-Glo reagent was added per well. Plates were placed on a plate shaker for 2 minutes in the dark and left to incubate off the shaker for another 8 minutes in the dark, for a total of 10 minutes. Plates were read using an EnVision plate reader (Perkin Elmer) using the Luminescence aperture and a measurement time of 0.1 second.
(§5) Data were analyzed in Genedata Screener®. IC50 values were determined by plotting % inhibition versus log compound concentration and using a one site dose response model. Raw data signals were normalized using 0.1% DMSO media only as background control, 0.1% DMSO with cells no compound as 100% viability (maximum signal), and day 0 0.1% DM with cells no compound as 0% viability (minimum signal).

[3] = test system: MV4;11 cells; assay: Proliferation assay, MV4;11 (CellTiter-Glo, 7 days); format: cell-based, human; settings: Homo sapiens, MV4-11, 168 h, read-out: MV-4-11 IC50
Method: as §1, §2, §3, §4, §5

[4] = test system: HEL cells; assay: Proliferation assay, HEL control cell line (CellTiter-Glo, 7 days); format: cell-based, human; settings: Homo sapiens, HEL, 168 h
Method: as §1, §2, §3, §4, §5

[5] = test system: OCI-AML3 cells; assay: Proliferation assay, OCI-AML3 (CellTiter-Glo, 7 days); format: cell-based, human; settings: Homo sapiens, OCI-AML-3, 168 h
Method: as §1, §2, §3, §4, §5

[6] = biological target: muscarinic M2 receptor (Homo sapiens (Human), UniProt P08172); assay: Muscarinic M2 receptor binding assay (assay 1); settings: [3H]AF-DX 384 2 nM, Cheng Prusoff
Sequence of muscarinic M2 receptor (P08172 whole entry): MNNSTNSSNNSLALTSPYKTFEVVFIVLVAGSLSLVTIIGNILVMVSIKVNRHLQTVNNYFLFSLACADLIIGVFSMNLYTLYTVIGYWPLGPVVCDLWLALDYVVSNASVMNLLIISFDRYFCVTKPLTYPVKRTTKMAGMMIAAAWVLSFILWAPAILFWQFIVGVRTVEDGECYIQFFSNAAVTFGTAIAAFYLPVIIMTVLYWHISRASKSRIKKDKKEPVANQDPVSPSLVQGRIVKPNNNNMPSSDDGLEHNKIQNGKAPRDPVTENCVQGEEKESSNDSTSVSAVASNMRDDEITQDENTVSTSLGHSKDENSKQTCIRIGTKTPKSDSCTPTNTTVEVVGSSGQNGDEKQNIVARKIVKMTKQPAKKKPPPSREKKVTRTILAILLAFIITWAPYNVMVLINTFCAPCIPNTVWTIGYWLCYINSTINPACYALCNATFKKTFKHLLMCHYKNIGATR
Method: Cell membrane homogenates (60 μg protein) were incubated for 60 minutes at 22° C. with 2 nM [3H]AF-DX 384 in the absence or presence of the test compound in a buffer containing 50 mM Tris-HCl (pH 7.4), 120 mM NaCl, 5 mM KCl, 5 mM MgCl2, and 1 mM EDTA. Nonspecific binding was determined in the presence of 1 μM atropine. Following incubation, the samples were filtered rapidly under vacuum through glass fiber filters (GF/B, Packard) presoaked with 0.3% PEI and rinsed several times with ice-cold 50 mM Tris-HCl using a 96-sample cell harvester (Unifilter, Packard). The filters were dried then counted for radioactivity in a scintillation counter (Topcount, Packard) using a scintillation cocktail (Microscint 0, Packard). The results were expressed as a percent inhibition of the control radioligand specific binding, from which the Ki was calculated. Data were analyzed using software developed at Cerep (Hill software) and validated by comparison with data generated by the commercial software SigmaPlot®4.0 for Windows® (© 1997 by SPSS Inc.). The inhibition constant, Ki, was calculated using the Cheng Prusoff equation:
where L=concentration of ligand in the assay, and Kd=affinity of the ligand for the receptor. The standard reference compound was methoctramine, which was tested in each experiment at several concentrations to obtain a competition curve from which its IC50 was calculated.

[7] = biological target: hERG (Homo sapiens (Human), UniProt Q12809); assay: hERG assay 1 (standard), SyncroPatch 384PE; format: cell-based; settings: CHO cells, room temperature, up to 40 uM
Sequence of hERG (Q12809 whole entry): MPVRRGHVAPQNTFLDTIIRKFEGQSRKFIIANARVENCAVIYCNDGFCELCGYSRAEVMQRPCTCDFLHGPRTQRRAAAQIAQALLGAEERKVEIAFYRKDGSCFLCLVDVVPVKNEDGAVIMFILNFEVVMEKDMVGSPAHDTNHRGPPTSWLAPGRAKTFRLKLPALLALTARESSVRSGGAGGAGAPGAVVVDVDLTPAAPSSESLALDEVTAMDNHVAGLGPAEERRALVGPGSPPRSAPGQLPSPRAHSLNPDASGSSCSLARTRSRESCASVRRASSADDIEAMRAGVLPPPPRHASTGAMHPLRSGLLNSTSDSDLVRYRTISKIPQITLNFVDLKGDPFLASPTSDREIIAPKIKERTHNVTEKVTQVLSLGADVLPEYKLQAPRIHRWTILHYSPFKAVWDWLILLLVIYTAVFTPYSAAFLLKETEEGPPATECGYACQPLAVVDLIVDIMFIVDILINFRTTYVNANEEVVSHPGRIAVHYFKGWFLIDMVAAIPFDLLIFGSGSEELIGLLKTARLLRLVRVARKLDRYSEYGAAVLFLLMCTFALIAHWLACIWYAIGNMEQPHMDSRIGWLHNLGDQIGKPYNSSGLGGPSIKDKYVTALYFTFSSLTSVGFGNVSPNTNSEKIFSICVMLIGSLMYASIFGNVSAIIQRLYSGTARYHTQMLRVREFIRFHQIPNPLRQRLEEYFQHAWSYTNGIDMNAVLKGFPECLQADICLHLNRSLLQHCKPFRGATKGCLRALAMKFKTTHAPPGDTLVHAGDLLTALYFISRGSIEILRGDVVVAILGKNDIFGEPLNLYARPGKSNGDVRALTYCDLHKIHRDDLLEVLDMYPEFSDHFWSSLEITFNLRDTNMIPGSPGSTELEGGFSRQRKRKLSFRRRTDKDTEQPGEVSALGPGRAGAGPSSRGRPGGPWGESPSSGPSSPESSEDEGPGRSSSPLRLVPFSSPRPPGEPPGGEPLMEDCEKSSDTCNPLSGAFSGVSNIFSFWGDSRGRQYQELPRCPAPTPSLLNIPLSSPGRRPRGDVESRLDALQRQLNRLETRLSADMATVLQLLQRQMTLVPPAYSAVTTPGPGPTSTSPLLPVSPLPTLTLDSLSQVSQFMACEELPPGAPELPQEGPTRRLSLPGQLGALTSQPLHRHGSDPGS
Method: Experiments were performed on the SyncroPatch 384PE (Nanion Technologies) high throughput patch clamp platform at room temperature and used medium resistance chips with 4 patch holes per site. hERG-expressing Chinese hamster ovary K1 (CHO) cell line was used in assay-ready format and kept in liquid nitrogen until use. 2 vials of cells (10×10^6 cells per vial) were thawed and added to 20 ml Hepes-buffered saline solution (HBSS). HBSS comprised 140 mM NaCl, 4 mM KCl, 10 mM HEPES and 5 mM Glucose (pH 7.4). The internal patch clamp solution was KF 120 mM, KCl 20 mM, HEPES 10 mM, EGTA 10 mM, and 25 μM Escin (pH 7.2). After the initial sealing process was complete, a seal enhancer solution comprising HBSS supplemented with 10 mM CaCl2 and 1 mM MgCl2 was applied to cells. The external solution was then exchanged (4 times) for external patch clamp solution comprising NaCl 80 mM, KCl 4 mM, HEPES 10 mM, CaCl2 2 mM, MgCl2 1 mM, glucose 5 mM, and NMDG 60 mM (pH7.4). All compounds were dispensed from initial 10 mM DMSO stocks. An industry standard +60/−40 mV voltage protocol was applied every 15 seconds. Compounds were tested in a 6-point cumulative assay (final DMSO concentration 0.33%), with a concentration range of 139 nM to 40 uM. Data were analyzed in Genedata Screener®. IC50 values were determined by plotting % inhibition versus log compound concentration and using a one site dose response model. Only wells that passed acceptance criteria for this platform were used in this analysis (30 MegaOhm seal resistance, Z prime >0.4 and current size >0.2 nA).

**Q.** What does the source list for `CC(C)N(C(=O)c1cc(F)ccc1-n1cc(C(=O)C2CN(C(=O)[C@H]3N[C@@H]4CC[C@H]3C4)C2)c2ccnnc21)C(C)C` [Example 14, 2-(5-(1-((1R,3S,4S)-2-Azabicyclo[2.2.1]heptane-3-carbonyl)azetidine-3-carbonyl)-7H-pyrrolo[2,3-c]pyridazin-7-yl)-5-fluoro-N,N-diisopropylbenzamide 1·formic acid]?
**A.** microsomal CLint at 1 µM ([1]; pH 7.4, HLM CLint): 38 µL/min/mg; IC50 ([2]; Homo sapiens, MOLM-13, 168 h): 476 nM; IC50 [3]: 345 nM; IC50 [4]: > 10000 nM; IC50 [5]: 626 nM

**Q.** With `CC(C)N(C(=O)c1cc(F)ccc1-n1cc(C(=O)[C@@H]2CCCN(C(=O)[C@H]3N[C@@H]4CC[C@H]3C4)CC2)c2ccncc21)C(C)C` (relative stereo) [Example 45, 2-(3-((R*)-1-((1R,3S,4S)-2-Azabicyclo[2.2.1]heptane-3-carbonyl)azepane-4-carbonyl)-1H-pyrrolo[2,3-c]pyridin-1-yl)-5-fluoro-N,N-diisopropylbenzamide 1·formic acid] as the compound, how does the microsomal CLint at 1 µM ([1]; pH 7.4, HLM CLint) read?
**A.** 139 µL/min/mg

**Q.** What about the IC50 ([2]; Homo sapiens, MOLM-13, 168 h) of the same compound?
**A.** 109 nM

**Q.** And the IC50 [4]?
**A.** > 10000 nM

**Q.** With `C[C@@H]1COC[C@H](C)N1C(=O)c1cc(F)ccc1-n1cc(C(=O)C2CCN(C(=O)[C@H]3N[C@@H]4CC[C@H]3C4)CC2)c2ccncc21` [Example 35, (1-((1R,3S,4S)-2-Azabicyclo[2.2.1]heptane-3-carbonyl)piperidin-4-yl)(1-(2-((3R,5S)-3,5-dimethylmorpholine-4-carbonyl)-4-fluorophenyl)-1H-pyrrolo[2,3-c]pyridin-3-yl)methanone] as the compound, how does the microsomal CLint at 1 µM ([1]; pH 7.4, HLM CLint) read?
**A.** 5 µL/min/mg

**Q.** What about the IC50 ([2]; Homo sapiens, MOLM-13, 168 h) of the same compound?
**A.** 297 nM

**Q.** And the IC50 [3]?
**A.** 146 nM

**Q.** What about the IC50 [4] of the same compound?
**A.** > 10000 nM

**Q.** And the IC50 [5]?
**A.** 412 nM

**Q.** What does the source list for `CCN(C(=O)c1cc(F)ccc1-n1cc(C(=O)C2CCN(C(=O)[C@H]3NC4CCC3CC4)CC2)c2ccncc21)C(C)C` [Example 29, (S)-2-(3-(1-(2-Azabicyclo[2.2.2]octane-3-carbonyl)piperidine-4-carbonyl)-1H-pyrrolo[2,3-c]pyridin-1-yl)-N-ethyl-5-fluoro-N-isopropylbenzamide]?
**A.** Ki [6]: 200 nM; IC50 [7]: > 40000 nM; microsomal CLint at 1 µM ([1]; pH 7.4, HLM CLint): 26 µL/min/mg; IC50 ([2]; Homo sapiens, MOLM-13, 168 h): 58 nM; IC50 [3]: 57 nM; IC50 [4]: > 10000 nM

**Q.** With `Cc1c(C(=O)C2CCN(C(=O)[C@@H]3CCC4(CC4)N3)CC2)c2ccncc2n1-c1ccc(F)cc1C(=O)N1[C@H](C)COC[C@H]1C` (single isomer, unassigned) [Example 58-1] as the compound, how does the microsomal CLint at 1 µM ([1]; pH 7.4, 1 mg/mL HLM, NADPH, read-out: HLM CLint) read?
**A.** 128 µL/min/mg

**Q.** What about the IC50 [2] of the same compound?
**A.** > 10000 nM

**Q.** What about the IC50 [4] of the same compound?
**A.** > 10000 nM

**Q.** With `CCN(C(=O)c1cc(F)ccc1-n1c(C)c(C(=O)C2CCN(C(=O)[C@@H]3CCC(C)(C)N3)CC2)c2ccncc21)C(C)C` (single isomer, unassigned) [Example 50-1] as the compound, how does the “HLM CLint” value [1] read?
**A.** 183 µL/min/mg

**Q.** What about the IC50 [2] of the same compound?
**A.** 2070 nM

**Q.** And the IC50 [4]?
**A.** > 10000 nM

**Q.** Which results are given for `Cc1c(C(=O)[C@@H]2CCN(C(=O)[C@H]3NC[C@@H]4C[C@@H]43)[C@@H](C)C2)c2ccncc2n1-c1ccc(F)cc1C(=O)N(CC(F)(F)F)C(C)C` (single isomer, unassigned) [Example 53-1, 2-(3-((2R*,4S*)-1-((1S,2S,5R)-3-Azabicyclo[3.1.0]hexane-2-carbonyl)-2-methylpiperidine-4-carbonyl)-2-methyl-1H-pyrrolo[2,3-c]pyridin-1-yl)-5-fluoro-N-isopropyl-N-(2,2,2-trifluoroethyl)benzamide]?
**A.** HLM CLint [1]: 116 µL/min/mg; IC50 [2]: 3270 nM; IC50 [4]: > 10000 nM

**Q.** What does the source list for `Cc1c(C(=O)C2CCN(C(=O)[C@@H]3CC[C@@H](C)N3)CC2)c2ccncc2n1-c1ccc(F)cc1C(=O)N(C(C)C)C(C)C` [Example 61, 5-Fluoro-N,N-diisopropyl-2-(2-methyl-3-(1-((2S,5R)-5-methylpyrrolidine-2-carbonyl)piperidine-4-carbonyl)-1H-pyrrolo[2,3-c]pyridin-1-yl)benzamide]?
**A.** IC50 [7]: > 40000 nM; microsomal CLint at 1 µM ([1]; pH 7.4, HLM CLint): 83 µL/min/mg; IC50 ([2]; Homo sapiens, MOLM-13, 168 h): 92 nM; IC50 [3]: 114 nM; IC50 [4]: > 10000 nM

**Q.** For `Cc1c(C(=O)C2CCN(C(=O)[C@@H]3CC[C@H](C)N3)CC2)c2ccncc2n1-c1ccc(F)cc1C(=O)N(C(C)C)C(C)C` [Example 60, 5-Fluoro-N,N-diisopropyl-2-(2-methyl-3-(1-((2S,5S)-5-methylpyrrolidine-2-carbonyl)piperidine-4-carbonyl)-1H-pyrrolo[2,3-c]pyridin-1-yl)benzamide], which IC50 [7] is on record?
**A.** > 40000 nM

**Q.** What about the microsomal CLint at 1 µM ([1]; pH 7.4, HLM CLint) of the same compound?
**A.** 106 µL/min/mg

**Q.** What about the IC50 ([2]; Homo sapiens, MOLM-13, 168 h) of the same compound?
**A.** 71 nM

**Q.** What about the IC50 [3] of the same compound?
**A.** 88 nM

**Q.** And the IC50 [4]?
**A.** > 10000 nM
